Measurements reported in patent US20140038953A1, “COMPOSITIONS AND METHODS FOR CARDIOVASCULAR DISEASE” (THE GENERAL HOSPITAL CORPORATION, priority 2011, published 2014).

Test system: HepG2 cells
Assay: ApoB-100 secretion in HepG2 cells (ELISA)
Assay type: cell-based, human
Conditions: compound 13 100 nM, atorvastatin 1 nM, ALK3-Fc 400 ng/mL
Protocol: Hepatoma G2 (HepG2) cells and human aortic endothelial cells (HAECs) were purchased from the American type culture collection (Manassas, Va.). HepG2 cells were maintained in Eagle's Minimum Essential Medium (EMEM) supplemented with 10% fetal bovine serum, 100 units/ml of penicillin, 0.1 mg/ml of streptomycin and glutamine. HAECs were cultured in endothelial cell basal medium (EBM 2) supplemented with the EBM2 bullet kit (Lonza, Basel, Switzerland). For experiments, cells were seeded into 6 or 12-well plates (BD Falcon, Franklin Lakes, N.J.) at a concentration of 0.5×10^6 cells per 5 mL of media. HAECs were maintained in EBM 2 with 0.1% FBS without additional growth factors for all experiments. HepG2 cells were grown to 70% confluence before they were incubated in EMEM enriched with 0.1% FBS. ApoB-100 measurements were performed in supernatants from HepG2 that had been incubated in EMEM containing 0.5% bovine serum albumin using a commercially available Human ApoB-100 ELISA kit (Mabtech AB, Nacka Strand, Sweden). BMP2 protein measurements were performed in supernatants from HAECs that had been incubated in EBM2 containing 0.1% FBS using a BMP2 ELISA kit (R&D Systems).

In the case of CC(C)c1c(C(=O)Nc2ccccc2)c(-c2ccccc2)c(-c2ccc(F)cc2)n1CC[C@@H](O)C[C@@H](O)CC(=O)O [Atorvastatin, atorvastatin, reference compound], the “BMP2-induced ApoB-100 secretion” value (BMP2 100 ng/mL) is reported as “did not prevent the induction of ApoB-100 synthesis by BMP2”, the “basal ApoB-100 secretion (absence of BMP2)” value is reported as “reduced basal apolipoprotein B100 (ApoB-100) secretion” and the “basal ApoB-100 secretion (absence of BMP2)” value (listed as atorvastatin) is reported as “reduced ApoB-100 production in the absence of BMP2”.
